The values below come from BindingDB's records for doi:10.1021/acs.jmedchem.0c01420 (Ochanomizu University, 2021).

Structures are written as SMILES.

This test is described as follows: Agonist activity at VDR in human HL-60 cells assessed as induction of cell differentiation of promyelocytes to monocytes after 4 days by NBT reduction assay.

Regarding `C[C@H](CCC(=O)O)[C@H]1CC[C@H]2[C@@H]3CC[C@@H]4C[C@@H](CC(C)(C)O)CC[C@]4(C)[C@H]3CC[C@]12C`, the EC50 – broadly, the concentration at which the effect is half-maximal – came out at 36 nM.

Turning to `C[C@H](CCC(=O)O)[C@H]1CC[C@H]2[C@@H]3CC[C@@H]4C[C@H](CC(C)(C)O)CC[C@]4(C)[C@H]3CC[C@]12C`, the half-maximal effective concentration (EC50) turned out to be 0.53 nM.
